Tests used:
[1] = tested on: yjdF TLC (T-loop chimera, Streptococcus ratti) (RNA, riboswitch) GGUAUAAAAACACAUUGCAGUUGGUAGUCUGCAAGCAUCAUCAGAUGUCAGUAACCGGUUCGAAUCCGGUCGUCCCAUACC; test: ligand fluorescence titration with RNA; conditions: 100 mM K+, 5 mM Mg2+; 20 mM Mops pH 7.0, 10 μM EDTA, 50 nM harmine; biphasic two-site Hill fit, site not stated; nearly identical to wt
[2] = tested on: yjdF wt aptamer domain (Staphylococcus aureus) (RNA, riboswitch) UAGAAGUGUAAAAACACAAUUGGGUUGGUAGUCCCAAUGCAGUUUUAAAACUGUCAGUAACCUUCCUCCUCGGGUUGUCCGUCAUUUCUA; test: ribosome filter binding (ligand-dependent); conditions: 100 mM NH4+, 5 mM Mg2+; 20 mM Hepes pH 7.0, 0.5 mM spermine; indirect
[3] = tested on: circΔP3 (circ∆L3) (RNA, riboswitch) GAUGUCAGUAACCUUCCCUCCAAGGUCGUCCCAUACCGUUCGCGGUAUAAAAACACAUUGCAGUUGGUAGUCUGCAAGCAUC; test: ligand fluorescence titration with RNA; conditions: 100 mM K+, 5 mM Mg2+; 20 mM Mops pH 7.0, 10 μM EDTA, 50 nM harmine; biphasic two-site Hill fit, site not stated; nearly identical to wt
[4] = tested on: yjdF wt aptamer domain (Streptococcus ratti) (RNA, riboswitch) GGUAUAAAAACACAUUGCAGUUGGUAGUCUGCAAGCAUCAUCAGAUGUCAGUAACCUUCCCUCCAAGGUCGUCCCAUACC; test: ligand fluorescence titration with RNA; conditions: 100 mM K+, 5 mM Mg2+; 20 mM Mops pH 7.0, 10 μM EDTA, 50 nM harmine; biphasic two-site Hill fit, site not stated
[5] = tested on: yjdF wt aptamer domain (Staphylococcus aureus) (RNA, riboswitch) UAGAAGUGUAAAAACACAAUUGGGUUGGUAGUCCCAAUGCAGUUUUAAAACUGUCAGUAACCUUCCUCCUCGGGUUGUCCGUCAUUUCUA; test: SAXS; ribosome filter binding (ligand-dependent); conditions: 100 mM K+, 2.5 mM Mg2+ (SAXS); 20 mM Mops pH 7.0 (SAXS)
[6] = tested on: yjdF wt aptamer domain (Streptococcus ratti) (RNA, riboswitch) GGUAUAAAAACACAUUGCAGUUGGUAGUCUGCAAGCAUCAUCAGAUGUCAGUAACCUUCCCUCCAAGGUCGUCCCAUACC; test: SHAPE probing (protection of A4, A5); conditions: 150 mM K+, 3 mM Mg2+; 20 mM MOPS-KOH pH 7.0, 10 μM EDTA, 2.5 μM ligand, 21 °C
[7] = tested on: yjdF wt aptamer domain (Enterococcus pallens) (RNA, riboswitch) CGAGCAUAAAAACACGAGGCGGUUGGUAGUCCGCCGCAUGAAAAUGUCAGUAGCCUUCCCUCCCGGGUCGUCCAUUGCUCG; test: SEC (ligand-dependent folding); conditions: 100 mM K+, 5 mM Mg2+; 20 mM Mops pH 7.0, 10 μM EDTA; 60 nM chelerythrine in running buffer; indirect
[8] = tested on: yjdF wt aptamer domain (Streptococcus ratti) (RNA, riboswitch) GGUAUAAAAACACAUUGCAGUUGGUAGUCUGCAAGCAUCAUCAGAUGUCAGUAACCUUCCCUCCAAGGUCGUCCCAUACC; test: ligand fluorescence emission (10-fold increase, 25 nm shift); conditions: 100 mM K+, 5 mM Mg2+; 20 mM Mops pH 7.0, 10 μM EDTA, 50 nM ligand, 20 °C
[9] = tested on: yjdF wt aptamer domain (Streptococcus ratti) (RNA, riboswitch) GGUAUAAAAACACAUUGCAGUUGGUAGUCUGCAAGCAUCAUCAGAUGUCAGUAACCUUCCCUCCAAGGUCGUCCCAUACC; test: ligand fluorescence emission (10-fold increase); conditions: 100 mM K+, 5 mM Mg2+; 20 mM Mops pH 7.0, 10 μM EDTA, 50 nM ligand, 20 °C

| Compound | binding [1] | binding [2] | binding [3] | Kd [4] [nM] | binding [5] | binding [6] | binding [7] | binding [8] | binding [9] |
| --- | --- | --- | --- | --- | --- | --- | --- | --- | --- |
| COc1ccc2c(c1)[nH]c1c(C)nccc12 | yes | yes | yes | 230 ± 30 |  |  |  |  |  |
| COc1ccc2c(c[n+](C)c3c4cc5c(cc4ccc23)OCO5)c1OC |  |  |  |  | yes | yes | yes | yes |  |
| C[n+]1cc2c3c(ccc2c2ccc4cc5c(cc4c21)OCO5)OCO3 |  |  |  |  |  | yes |  |  | yes |

From publication PMC9142559 (2022)
